{
  "source": "paper PMC12867150",
  "about": "“A fungi-derived cyclic peptide enhances Th9-mediated antitumor immunity by targeting ZAP70 and SREBP1” (The Journal of Clinical Investigation, 2025)",
  "key": {"[1]": {"system": "TNF-α in Th9 cells", "assay": "Flow cytometry of TNF-α in Th9 cells in vitro (Figure 3F, 5I, 7C, S8M-N)", "format": "cell-based, mouse", "design": "TNF expression in Th9 cells / TNF-α expression of Th9 cells: unit not given here", "conditions": "for TNF expression in Th9 cells: Figure 7C, one per column (n = 4); for TNF (flow cytometric quantification): Figure 5I, (n = 5); for TNF-α expression of Th9 cells: Supplemental Figure 8N", "procedure": "(§1) Naive CD4^+ T cells were isolated from the spleens of C57BL/6J or CD45.1^+ OT-II mice using the MojoSort Mouse CD4 Naive T Cell Isolation Kit (BioLegend, catalog 480040), following the manufacturer’s protocol. Purified cells were cultured in RPMI-1640 medium supplemented with 10% FBS, 1% penicillin-streptomycin, and 0.1% β-mercaptoethanol (Gibco, catalog 21985023).\n(§2) T cell polarization was initiated under plate-bound anti-CD3 (2 μg/mL, clone 17A2, BioXCell, catalog BE0002) and soluble anti-CD28 (1 μg/mL, clone 37.51, BioXCell, catalog BE0015-1) stimulation, with the addition of cytokines and neutralizing antibodies specific to each subset. For Th9 cells, these included IL-4 (10 ng/mL, Peprotech, catalog 400-04), TGF-β (1 ng/mL, EPOTO Biotech, catalog HF-2021), anti–IL-12 (5 μg/mL, clone C17.8, BioXCell, catalog BE0051), and anti–IFN-γ (10 μg/mL, clone XMG1.2, BioXCell, catalog BE0055); for Th1 cells, these included IL-12 (10 ng/mL, GenScript, catalog Z03211-50) and anti–IL-4 (5 μg/mL, clone 11B11, BioXCell, catalog BE0045); for Th2 cells, these included IL-4 (50 ng/mL), anti–IFN-γ (20 μg /mL), anti–IL-12 (5 μg/mL), Th17 cells: IL-6 (20 ng/mL, EPOTO Biotech, catalog MF-1006), TGF-β (1 ng/mL), IL-1β (10 ng/mL, Peprotech, catalog AF-211-11B), anti–IFN-γ (10 μg/mL), anti–IL-12 (5 μg/mL), and anti–IL-4 (5 μg/mL); and for Tregs, these included TGF-β (3 ng/mL). After 3 days of initial culture, cells were either collected for downstream assays or continued in extended culture with refreshed cytokines to maintain lineage commitment.\n(§3) Details regarding staining panels (human and mouse), reagents (including clones and catalog numbers), acquisition settings, compensation/controls, and analysis procedures are provided in Supplemental Methods.\n(§4) BioLegend, Cat. No. 422301 or Mouse TruStain FcX™, BioLegend, Cat. No. 101319) for 10 minutes at 4°C. For surface marker detection, cells were stained with fluorochrome-conjugated monoclonal antibodies in 96-well V-bottom plates and incubated on ice for 30 minutes. After staining, cells were washed twice and resuspended in FACS buffer for analysis.\n(§5) Prior to intracellular cytokine staining, cells were restimulated for 4 hours with PMA (Absin, Cat. No. abs9107), ionomycin (Sigma-Aldrich, Cat. No. I0634), and brefeldin A (MedChemExpress, Cat. No. HY-16592). For intracellular cytokine staining, cells were first surface-stained as described above, then fixed and permeabilized using the BD Cytofix/Cytoperm™ kit (BD Biosciences, Cat. No. 554714) according to the manufacturer ’s protocol. Intracellular proteins were stained with directly conjugated antibodies targeting IL-9, IL-17a, IL-4, IFN-γ, TNF-α, FOXP3, p-ZAP70, Perforin, and […]\n(§6) Antibodies used for mouse samples included those against IL-9 (PE, clone RM9A4, Biolegend, Cat. No. 514104), IFN-γ (PE, clone XMG1.2, Biolegend, Cat. No.\n(§7) Cat. No. 103138), CD4 (APC/Cy7, clone E-AB-F1353UJ, Elabscience, Cat. No.\n(§8) AF18028), CD8α (PerCP/Cy5.5, clone E-AB-F1104UJ, Elabscience, Cat. No. […]\n(§9) clone E-AB-F1187UH, Elabscience, Cat. No. AF19854), TNF-α (BV421, clone MP6-XT22, Biolegend, Cat. No. 506328), FOXP3 (PE, clone FJK-16s, eBioscience, Cat. No.\n(§10) Perforin (APC, clone S16009A, Biolegend, Cat. No. 154303) and Granzyme B (APC, […]\n(§11) clone QA16A02, Biolegend, Cat. No. 372203). […]"}, "[2]": {"system": "PD-1 on Th9 cells", "assay": "Flow cytometry of PD-1 on Th9 cells in vitro (Figure 5K, 7E, S3D)", "format": "cell-based, mouse", "conditions": "for PD-1 expression in Th9 cells: Figure 7E, one per column (n = 4); for PD-1 expression in Th9 cells / PD1 (flow cytometric quantification): individual replicates; for PD-1 expression: result in words; for PD1 (flow cytometric quantification): Figure 5K, (n = 5); for Expression of PD-1 in Th9: Supplemental Figure 3D", "procedure": "as §1, §2, §3, §4, §5, §6, §7, §8, §9, §10, §11"}, "[3]": {"system": "mitochondria of human Th9 cells", "assay": "Mitochondrial membrane potential / mass of human Th9 cells (Figure 8D, S9B)", "format": "cell-based", "conditions": "for mitochondrial mass using Mito Tracker in human Th9 cells: flow cytometry, Supplemental Figure 9B", "procedure": "For Th9 polarization, cultures were supplemented with IL-4 (10 ng/mL, PeproTech, catalog AF-200-04), TGF-β (1 ng/mL), and neutralizing anti–IFN-γ monoclonal antibody (10 μg/mL, clone B27, BioXcell, catalog BE0245). After 3 days of initial culture, cells were either collected for downstream assays or continued in extended culture with refreshed cytokines to maintain lineage commitment without antibodies. Th9 cells were collected at days 4, 5, and 6 for subsequent in vitro assays. For adoptive transfer studies, day 4–cultured Th9 cells were washed and prepared for intravenous injection.\nMitochondrial mass and membrane potential were assessed using MitoTracker™ Deep Red FM (Thermo Fisher Scientific, catalog M22426) and TMRM (tetramethylrhodamine methyl ester; Macklin, catalog T868125), respectively, following the manufacturers’ protocols. Cells were incubated with the respective dyes, washed, and subjected to flow cytometry or fluorescence microscopy analysis. For ultrastructural assessment, mitochondrial number and diameter were quantified from high-resolution transmission electron microscopy (TEM) images using ImageJ software."}, "[4]": {"system": "SREBP1", "assay": "CETSA of SREBP1 (Figure 6D-E)", "format": "binding", "conditions": "result in words", "procedure": "Jurkat or 293T cells were washed twice with PBS and resuspended in PBS containing protease and phosphatase inhibitors. Cells were lysed by 3 cycles of liquid nitrogen snap-freezing and thawing at room temperature. […] One aliquot from each group was maintained at room temperature, and the others were heated for 3 minutes at 3 °C increments from 43°C to 64°C. Samples were then analyzed by SDS-PAGE and immunoblotting to assess protein thermal stability and compound binding."}, "[5]": {"conditions": "single agent, 10 µM, individual replicates"}},
  "note": "Several values for one entry are separate records, joined by “and”; a condition that tells them apart may be missing. Equal values may be shown once. Where a name gives a salt, the structure may show the parent alone.",
  "data": [
    {"molecule": "CCCc1cc(-c2nc(-c3ccc(C)cc3)cs2)ccn1", "note": "[fatostatin, fatostatin hydrobromide, reference compound]", "values": [
      {"measurement": "TNF expression in Th9 cells", "setting": "[1]; [5]", "value": "2574 and 2507 and 2536 and 2484"},
      {"measurement": "PD-1 expression in Th9 cells", "setting": "[2]; single agent, 10 µM", "value": "384 and 402 and 369 and 372"},
      {"measurement": "PD-1 expression", "setting": "[2]; fatostatin alone or with EpA", "value": "induced PD-1 upregulation in control Th9 cells"},
      {"measurement": "mitochondrial membrane potential, human EpA-Th9", "setting": "[3]; with fatostatin, result in words", "value": "further augmented"}
    ]},
    {"molecule": "anteiso-C15 Leu7 surfactin [EpA]", "values": [
      {"measurement": "TNF-α production", "setting": "[1]; EpA + fatostatin, result in words", "value": "elevated in the combination group"},
      {"measurement": "MFI of TNF-α", "setting": "[1]; EpA-treated Th9 cells, individual replicates, n = 6", "value": "2286 and 2180 and 2244 and 2177 and 2115 and 2169"},
      {"measurement": "TNF (flow cytometric quantification)", "setting": "[1]; EpA + ERKin combination, individual replicates", "value": "2696 and 2174 and 2281 and 2032 and 1920"},
      {"measurement": "TNF (flow cytometric quantification)", "setting": "[1]; EpA + MEKin combination, individual replicates", "value": "1415 and 1401 and 1417 and 1456 and 1441"},
      {"measurement": "TNF (flow cytometric quantification)", "setting": "[1]; single agent, individual replicates", "value": "2873 and 2973 and 3771 and 3384 and 2525"},
      {"measurement": "TNF expression in Th9 cells", "setting": "[1]; EpA (10 µM) + Fatostatin (10 µM), individual replicates", "value": "3879 and 3735 and 3908 and 3188"},
      {"measurement": "TNF expression in Th9 cells", "setting": "[1]; [5]", "value": "2951 and 2896 and 2950 and 2779"},
      {"measurement": "TNF-α expression of Th9 cells", "setting": "[1]; MigR1, replicate 1", "value": 2796},
      {"measurement": "TNF-α expression of Th9 cells", "setting": "[1]; MigR1, replicate 2", "value": 2837},
      {"measurement": "TNF-α expression of Th9 cells", "setting": "[1]; MigR1, replicate 3", "value": 2787},
      {"measurement": "TNF-α expression of Th9 cells", "setting": "[1]; SREBP1, replicate 1", "value": 2060},
      {"measurement": "TNF-α expression of Th9 cells", "setting": "[1]; SREBP1, replicate 2", "value": 1962},
      {"measurement": "TNF-α expression of Th9 cells", "setting": "[1]; SREBP1, replicate 3", "value": 1934},
      {"measurement": "EpA-induced TNF-α increase (protein) upon SREBP1 overexpression", "setting": "[1]; result in words", "value": "markedly suppressed"},
      {"measurement": "PD-1 expression", "setting": "[2]; EpA-Th9 cells in vitro", "value": "increased PD-1 expression"},
      {"measurement": "PD1 (flow cytometric quantification)", "setting": "[2]; EpA + ERKin combination", "value": "205 and 196 and 199 and 194 and 192"},
      {"measurement": "PD1 (flow cytometric quantification)", "setting": "[2]; EpA + MEKin combination", "value": "163 and 169 and 166 and 170 and 159"},
      {"measurement": "PD1 (flow cytometric quantification)", "setting": "[2]; single agent", "value": "986 and 1657 and 450 and 878 and 1491"},
      {"measurement": "PD-1 expression in Th9 cells", "setting": "[2]; EpA (10 µM) + Fatostatin (10 µM)", "value": "424 and 342 and 382 and 324"},
      {"measurement": "PD-1 expression in Th9 cells", "setting": "[2]; single agent, 10 µM", "value": "366 and 370 and 368 and 374"},
      {"measurement": "Expression of PD-1 in Th9", "setting": "[2]; replicate 1", "value": 836},
      {"measurement": "Expression of PD-1 in Th9", "setting": "[2]; replicate 2", "value": 830},
      {"measurement": "Expression of PD-1 in Th9", "setting": "[2]; replicate 3", "value": 871},
      {"measurement": "Expression of PD-1 in Th9", "setting": "[2]; replicate 4", "value": 812},
      {"measurement": "Expression of PD-1 in Th9", "setting": "[2]; replicate 5", "value": 848},
      {"measurement": "Expression of PD-1 in Th9", "setting": "[2]; replicate 6", "value": 842},
      {"measurement": "PD-1 expression", "setting": "[2]; fatostatin alone or with EpA", "value": "not further increased in EpA-Th9 cells treated with fatostatin"},
      {"measurement": "thermal stability of SREBP1", "setting": "[4]", "value": "enhanced thermal stability of SREBP1"},
      {"measurement": "mitochondrial mass using Mito Tracker in human Th9 cells", "setting": "[3]; replicate 1", "value": "2.888 ×10^5"},
      {"measurement": "mitochondrial mass using Mito Tracker in human Th9 cells", "setting": "[3]; replicate 2", "value": "2.867 ×10^5"},
      {"measurement": "mitochondrial mass using Mito Tracker in human Th9 cells", "setting": "[3]; replicate 3", "value": "2.9 ×10^5"},
      {"measurement": "mitochondrial membrane potential, human Th9", "setting": "[3]; result in words", "value": "increased mitochondrial membrane potential"}
    ]}
  ]
}
